According to article PMC4899784, “LTP-1, a novel antimitotic agent and Stat3 inhibitor, inhibits human pancreatic carcinomas in vitro and in vivo” (Scientific Reports, 2016):

Legend:
[1] = target: T1, tubulin (α/β-tubulin heterodimer) (Sus scrofa, UniProt P02550+P02554); assay: cell-free tubulin polymerization assay (absorbance at […] nm), inhibition; format: biochemical
T1 construct: gene TUBA1A; with α/β-tubulin heterodimer

[2] = target: T1, tubulin (α/β-tubulin heterodimer); assay: cell-free tubulin polymerization assay (absorbance at […] nm), enhancement; format: biochemical

T1 sequence (P02550 whole entry): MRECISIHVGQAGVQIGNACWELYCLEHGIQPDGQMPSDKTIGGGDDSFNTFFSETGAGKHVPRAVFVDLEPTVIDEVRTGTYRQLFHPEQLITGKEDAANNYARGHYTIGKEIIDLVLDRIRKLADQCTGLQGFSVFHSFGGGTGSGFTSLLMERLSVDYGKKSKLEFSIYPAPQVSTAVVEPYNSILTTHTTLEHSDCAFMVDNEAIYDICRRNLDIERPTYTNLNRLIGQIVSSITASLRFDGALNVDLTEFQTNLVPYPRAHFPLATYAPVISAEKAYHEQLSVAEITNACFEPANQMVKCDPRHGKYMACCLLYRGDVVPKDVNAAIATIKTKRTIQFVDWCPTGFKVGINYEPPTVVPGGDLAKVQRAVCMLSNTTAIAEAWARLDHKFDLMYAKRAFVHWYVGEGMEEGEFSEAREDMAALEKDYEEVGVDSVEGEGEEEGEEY
T1 sequence (P02554 whole entry): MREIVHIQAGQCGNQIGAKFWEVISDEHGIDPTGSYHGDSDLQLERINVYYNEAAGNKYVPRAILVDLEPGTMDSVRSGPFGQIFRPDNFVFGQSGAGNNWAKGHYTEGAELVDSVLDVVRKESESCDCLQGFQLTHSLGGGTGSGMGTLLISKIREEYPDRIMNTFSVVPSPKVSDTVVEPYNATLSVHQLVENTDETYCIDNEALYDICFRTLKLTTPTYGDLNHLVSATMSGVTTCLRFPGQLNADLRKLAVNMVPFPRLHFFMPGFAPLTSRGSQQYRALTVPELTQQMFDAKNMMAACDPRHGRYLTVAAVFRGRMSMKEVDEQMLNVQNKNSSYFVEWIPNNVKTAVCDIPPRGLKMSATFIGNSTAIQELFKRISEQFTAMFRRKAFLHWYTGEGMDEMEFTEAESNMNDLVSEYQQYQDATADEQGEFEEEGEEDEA

Row | Compound | cell-free tubulin polymerization assay (absorbance at 340 nm), inhibition [1] | cell-free tubulin polymerization assay (absorbance at 340 nm), enhancement [2]
1 | COc1ccc(S(=O)(=O)Nc2ccccc2-c2ccc(C#N)cc2)cc1 [LTP-1] | LTP-1 acted like vincristine, to inhibit tubulin polymerization in a concentration-dependent manner | –
2 | CC(=O)O[C@H]1C(=O)[C@@]2(C)[C@H]([C@H](OC(=O)c3ccccc3)[C@]3(O)C[C@H](OC(=O)[C@H](O)[C@@H](NC(=O)c4ccccc4)c4ccccc4)C(C)=C1C3(C)C)[C@]1(OC(C)=O)CO[C@@H]1C[C@@H]2O [paclitaxel] | – | Paclitaxel enhanced microtubule assembly and mitotic spindle formation, whereas LTP-1 and vincristine disrupted microtubule formation (Fig. 2A)
